Measured values taken from US11051515B2, “3-acyl-benzamides and their use as herbicides” (Bayer Aktiengesellschaft, priority 2017, dated 2021).

Assays:
PHBPU [1] = test: Pre-emergence action against PHBPU; format: in vivo, Pharbitis purpurea; details: for pest or weed control at 320 g/ha: Ipomoea purpurea, 504 h, Dosage 320 g/ha, pre-emergence
Summary of the method: (§1)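 Seeds sown in sandy loam in wood-fiber pots and covered with soil. Greenhouse growth; visual damage scored after 3 weeks versus untreated controls (100% = dead, 0% = like control).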

ECHCG = test: Post-emergence action against ECHCG; format: in vivo, Echinochloa crus-galli; details: for pest or weed control at 80 g/ha: Echinochloa crus-galli, 504 h, post-emergence, dosage 80 g/ha, visual assessment about 3 weeks after treatment vs untreated controls, read-out: Post-emergence action against ECHCG (herbicidal action in percent); for Herbicidal efficacy against ECHCG: Table V16, post-emergence
Summary of the method: (§2)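 Post-emergence foliar spray on greenhouse plants at the one-leaf stage, using wettable-powder or emulsion-concentrate formulations in water (600 to […], plus 0.2% wetting agent). Damage scored by eye roughly 3 weeks later against untreated plants: 0% = like control, 100% = dead.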

SETVI = test: Pre-emergence action against SETVI; format: in vivo, Setaria viridis; details: for pest or weed control at 320 g/ha: Setaria viridis, 504 h, pre-emergence, dosage 320 g/ha, scored visually after 3 weeks vs untreated controls, read-out: SETVI (Table B8, pre-emergence herbicidal activity)
Summary of the method: as §1

ALOMY = test: Pre-emergence action against ALOMY; format: in vivo, Alopecurus myosuroides; details: for pest or weed control at 320 g/ha: Alopecurus myosuroides, 504 h, dosage 320 g/ha, pre-emergence, scored visually after 3 weeks vs untreated controls, 100% = plants have died, 0% = like control plants, read-out: Pre-emergence action against ALOMY (herbicidal activity in percent); for Herbicidal efficacy against ALOMY: 80 g of a.i./ha
Summary of the method: as §1

LOLMU [2] = test: Post-emergence action against LOLMU; format: in vivo, Lolium multiflorum; details: Lolium multiflorum, 504 h, dosage 80 g/ha, visual assessment about 3 weeks after treatment vs untreated controls, read-out: Post-emergence action against LOLMU (herbicidal action in percent)
Summary of the method: as §2

CYPES = test: Pre-emergence action against CYPES; format: in vivo, Cyperus esculentus; details: for pest or weed control at 320 g/ha: Cyperus esculentus, 504 h, pre-emergence, dosage 320 g/ha, scored visually after 3 weeks vs untreated controls, read-out: Pre-emergence action against CYPES (herbicidal activity); for Herbicidal efficacy against CYPES: 80 g of a.i./ha
Summary of the method: as §1

PHBPU [3] = test: Post-emergence action against PHBPU; format: in vivo, Pharbitis purpurea; details: for pest or weed control at 80 g/ha: Ipomoea purpurea, 504 h, post-emergence, dosage 80 g/ha
Summary of the method: as §2

MATIN = test: Post-emergence action against MATIN; format: in vivo, Matricaria inodora; details: for pest or weed control at 80 g/ha: Tripleurospermum inodorum, 504 h, post-emergence, dosage 80 g/ha, visual assessment about 3 weeks after treatment vs untreated controls, read-out: Post-emergence action against MATIN (herbicidal action in percent)
Summary of the method: as §2

LOLRI [4] = test: Post-emergence action against LOLRI; format: in vivo, Lolium rigidum; details: Lolium rigidum, 504 h, dosage 80 g/ha, visual assessment about 3 weeks after treatment vs untreated controls, read-out: Post-emergence action against LOLRI (herbicidal action in percent)
Summary of the method: as §2

DIGSA [5] = test: Post-emergence action against DIGSA; format: in vivo, Digitaria sanguinalis; details: dosage 80 g/ha, visual assessment about 3 weeks after treatment vs untreated controls
Summary of the method: as §2

DIGSA [6] = test: Pre-emergence action against DIGSA; format: in vivo, Digitaria sanguinalis; details: dosage 320 g/ha, scored visually after 3 weeks vs untreated controls
Summary of the method: as §1

HORMU [7] = test: Pre-emergence action against HORMU; format: in vivo, Hordeum murinum; details: Hordeum murinum, 504 h, Dosage 320 g/ha
Summary of the method: as §1

LOLRI [8] = test: Pre-emergence action against LOLRI; format: in vivo, Lolium rigidum; details: Lolium rigidum, 504 h, dosage 320 g/ha, scored visually after 3 weeks vs untreated controls, read-out: Pre-emergence action against LOLRI (herbicidal activity)
Summary of the method: as §1

LOLMU [9] = test: Pre-emergence action against LOLMU; format: in vivo, Lolium multiflorum; details: Lolium multiflorum, 504 h, dosage 320 g/ha, scored visually after 3 weeks vs untreated controls, read-out: Pre-emergence action against LOLMU (herbicidal activity)
Summary of the method: as §1

HORMU [10] = test: Post-emergence action against HORMU; format: in vivo, Hordeum murinum; details: dosage 80 g/ha
Description: Seeds of monocotyledonous and dicotyledonous weed and crop plants are laid out in sandy loam soil in wood-fiber pots, covered with soil and cultivated in a greenhouse under good growth conditions. 2 to 3 weeks after sowing, the test plants are treated at the one-leaf stage. The compounds of the invention, formulated in the form of wettable powders (WP) or as emulsion concentrates (EC), are then sprayed onto the green parts of the plants in the form of an aqueous suspension or emulsion at a water application rate equating to […], with addition of 0.2% wetting agent. After the test plants have been left to stand in the greenhouse under optimal growth conditions for about 3 weeks, the action of the preparations is assessed visually in comparison to untreated controls (herbicidal action in percent (%): 100% activity=the plants have died, 0% activity=like control plants). […] At the same time, inventive compounds leave Gramineae crops such as barley, wheat, rye, millet/Sorghum, corn or rice virtually undamaged when applied post-emergence, even at high active ingredient dosages. In addition, some substances are also harmless to dicotyledonous crops such as soya, cotton, oilseed rape, sugar beet or potatoes. Some of the compounds according to the invention have high selectivity and are therefore suitable for controlling unwanted vegetation in agricultural crops by the post-emergence method. The data of Tables B18 to B34 below illustrate, in an exemplary manner, the […] herbicidal action of the compounds according to the invention, the herbicidal activity being stated in percent.

[11] = Table V18, post-emergence, 20 g of a.i./ha
[12] = Table V16, post-emergence, 5 g of a.i./ha
[13] = Table V16, post-emergence, 20 g of a.i./ha

Row | SMILES | pest or weed control at 80 g/ha (ECHCG) | pest or weed control at 320 g/ha (SETVI) | pest or weed control at 320 g/ha (ALOMY) | pest or weed control at 80 g/ha (LOLMU [2]) | pest or weed control at 320 g/ha (CYPES) | pest or weed control at 80 g/ha (PHBPU [3]) | pest or weed control at 80 g/ha (MATIN) | pest or weed control at 80 g/ha (LOLRI [4]) | pest or weed control at 320 g/ha (PHBPU [1]) | pest or weed control at 320 g/ha (HORMU [7]) | pest or weed control at 320 g/ha (LOLRI [8]) | pest or weed control at 320 g/ha (LOLMU [9]) | other results
1 | Cc1c(C(=O)Nc2nnnn2C)ccc(S(C)(=O)=O)c1C(=O)C1CC1 [1-9] | 90% | 100% | 90% | 90% | 80% | 100% | 100% | – | – | – | – | – | Herbicidal efficacy against PHBPU (PHBPU [1]; Table V6, pre-emergence, 80 g of a.i./ha): 60; Herbicidal efficacy against SETVI (SETVI; Table V9, pre-emergence, 80 g of a.i./ha): 100; Herbicidal efficacy against CYPES (CYPES; Table V6, pre-emergence): 70; Herbicidal efficacy against PHBPU (PHBPU [3]; [11]): 100; Herbicidal efficacy against MATIN (MATIN; Table V17, post-emergence, 5 g of a.i./ha): 100; Herbicidal efficacy against MATIN (MATIN; [11]): 100
2 | CCCC(=O)c1c(C(F)(F)F)ccc(C(=O)Nc2nnnn2C)c1C [1-16] | 90% | 100% | 90% | – | – | 100% | 100% | 80% | 90% | 90% | 100% | – | Post-emergence action against DIGSA (herbicidal action in percent) (DIGSA [5]): 90%; Pre-emergence action against DIGSA (herbicidal activity) (DIGSA [6]): 100%
3 | COc1c(C(=O)Nc2nnnn2C)ccc(C(F)(F)F)c1C(=O)C1CC1 [1-50] | 90% | 100% | 100% | 90% | 100% | 100% | 100% | – | 100% | – | – | 100% | –
4 | CSc1c(C(=O)Nc2nnnn2C)ccc(C(F)(F)F)c1C(C)=O [1-58] | 100% | 100% | 100% | 80% | 100% | 100% | 100% | – | 100% | – | – | 90% | –
5 | CSc1c(C(=O)Nc2nnnn2C)ccc(C(F)(F)F)c1C(=O)C1CC1 [1-60] | 100% | 100% | 100% | – | 100% | 90% | 100% | 100% | 100% | 100% | 100% | – | Post-emergence action against HORMU (HORMU [10]): 100
6 | CSc1c(C(=O)Nc2nnnn2C)ccc(C(F)F)c1C(=O)C1CC1 [1-67] | 100% | 100% | 100% | – | 90% | 80% | 100% | 100% | 100% | 80% | 100% | – | Post-emergence action against HORMU (HORMU [10]): 100
7 | CC(=O)c1c(S(C)(=O)=O)ccc(C(=O)Nc2nnnn2C)c1Cl [1-127] | 100% | 90% | 100% | – | 90% | 100% | 100% | – | 90% | – | – | 80% | Herbicidal efficacy against ECHCG (ECHCG; 5 g of a.i./ha): 100; Herbicidal efficacy against ECHCG (ECHCG; 20 g of a.i./ha): 100; Herbicidal efficacy against ALOMY (ALOMY; Table V1, pre-emergence): 80; Herbicidal efficacy against ALOMY (ALOMY; Table V3, pre-emergence): 80; Herbicidal efficacy against CYPES (CYPES; Table V1, pre-emergence): 90; Herbicidal efficacy against CYPES (CYPES; Table V3, pre-emergence): 90; Herbicidal efficacy against PHBPU (PHBPU [3]; [12]): 70; Herbicidal efficacy against PHBPU (PHBPU [3]; [13]): 100; Herbicidal efficacy against MATIN (MATIN; Table V14, post-emergence, 5 g of a.i./ha): 90; Herbicidal efficacy against MATIN (MATIN; [12]): 90; Herbicidal efficacy against MATIN (MATIN; [13]): 100
8 | Cn1nnnc1NC(=O)c1ccc(S(C)(=O)=O)c(C(=O)C2CC2)c1Cl [1-129] | 90% | 100% | 100% | 80% | 100% | 100% | 90% | – | 100% | – | – | 100% | SETVI (SETVI; Table V2, pre-emergence, 20 g of a.i./ha): 90; Herbicidal efficacy against ALOMY (ALOMY; Table V3, pre-emergence): 100; Herbicidal efficacy against CYPES (CYPES; Table V3, pre-emergence): 100; Herbicidal efficacy against MATIN (MATIN; Table V15, post-emergence, 5 g of a.i./ha): 80
9 | CC(=O)c1c(C(F)(F)F)ccc(C(=O)Nc2nnnn2C)c1Cl [1-137, 3-acetyl-2-chloro-N-(1-methyl-1H-tetrazol-5-yl)-4-(trifluoromethyl)benzamide] | 90% | 100% | 90% | 100% | 100% | 100% | 90% | – | 90% | – | – | 100% | –
10 | Cn1nnnc1NC(=O)c1ccc(C(F)(F)F)c(C(=O)C2CC2)c1Cl [1-141] | 100% | 100% | 100% | 100% | 100% | 100% | 90% | – | 100% | – | – | 100% | –
11 | CC(=O)c1c(C(F)F)ccc(C(=O)Nc2nnnn2C)c1Cl [1-164] | 100% | 100% | 100% | – | 100% | 90% | 100% | 90% | 100% | 90% | 100% | – | –
12 | CCC(=O)c1c(C(F)F)ccc(C(=O)Nc2nnnn2C)c1Cl [1-165] | 90% | 100% | 100% | – | – | 90% | 90% | 80% | 100% | 90% | 100% | – | Post-emergence action against DIGSA (herbicidal action in percent) (DIGSA [5]): 100%; Pre-emergence action against DIGSA (herbicidal activity) (DIGSA [6]): 100%
